Here are results for two compounds from US7740882B2, “Enhanced oral and transcompartmental delivery of therapeutic or diagnostic agents” (priority 2001, dated 2010).

“And” between values parts separate entries of the source, which are not always exact repeats. Equal entries are not always repeated. “Also recorded” adds a separate entry of the source.

The target in one data set is T1, SMVT (Homo sapiens, UniProt Q9Y289).
T1 sequence (Q9Y289 1-635): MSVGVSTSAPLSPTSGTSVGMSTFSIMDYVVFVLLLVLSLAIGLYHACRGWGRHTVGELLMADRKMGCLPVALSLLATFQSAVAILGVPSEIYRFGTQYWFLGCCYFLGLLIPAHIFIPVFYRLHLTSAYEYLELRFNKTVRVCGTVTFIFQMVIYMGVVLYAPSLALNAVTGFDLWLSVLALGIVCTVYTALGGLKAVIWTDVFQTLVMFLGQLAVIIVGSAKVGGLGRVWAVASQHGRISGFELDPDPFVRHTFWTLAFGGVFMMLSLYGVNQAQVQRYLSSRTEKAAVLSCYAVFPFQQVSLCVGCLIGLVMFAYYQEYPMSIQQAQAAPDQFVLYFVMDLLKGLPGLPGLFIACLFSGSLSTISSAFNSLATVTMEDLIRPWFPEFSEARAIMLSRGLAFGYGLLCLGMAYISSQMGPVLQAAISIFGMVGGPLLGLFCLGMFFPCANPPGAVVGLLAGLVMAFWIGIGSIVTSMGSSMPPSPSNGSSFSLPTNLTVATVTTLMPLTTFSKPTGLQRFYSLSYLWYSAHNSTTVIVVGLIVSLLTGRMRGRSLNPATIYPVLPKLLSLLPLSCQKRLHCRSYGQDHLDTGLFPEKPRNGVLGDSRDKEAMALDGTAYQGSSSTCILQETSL
Briefly: Inhibition of substrate uptake in CHO/hSMVT cells by 50 μM SMVT substrates. It is filed as in vitro ADME. Also noted: expressed in transfected cells; host or cells: CHO cells (ATCC), transient Lipofectamine transfection; plasmid was a gift of Dr. Puttur D. Prasad.

The test system of a further data set is Caco-2 cell monolayers. Briefly: Absorptive (AP to BL) transport across Caco-2 cell monolayers. As to conditions: Caco-2 absorptive transport. Background: Passage across Caco-2 layers is used to estimate intestinal permeability.
Another data set can be described thus: in vitro. As to conditions: human, Caco-2.
For another data set, the system named is rat small intestine. The conditions noted are these: read-out: Km of biotin transport; literature; cited from earlier work.
The target of data set [1] is T2, human sodium dependent multivitamin transporter, hSMVT (Homo sapiens, UniProt Q9Y289).
T2 sequence (Q9Y289 1-635): T1 sequence (Q9Y289 1-635)
Briefly: Uptake in CHO cells transiently transfected with hSMVT (CHO/hSMVT). As to conditions: for Pm, passive uptake component: CHO/hSMVT cellular uptake, (S.D), n = 3. The protocol:
(§1) CHO Cell Uptake Studies CHO cells transiently transfected with hSMVT (CHO/hSMVT) were washed twice with 25 mM uptake buffer, containing 25 mM Hepes/Tris pH 7.5, 140 mM NaCl, 5.4 mM KCl, 1.8 CaCl2, 0.8 mM MgSO4 and 5 mM glucose, approximately 48 hours post-transfection. Subsequently, the cells were incubated with the permeant at 37° C. for 10 minutes. Uptake was stopped by washing the cells thrice with ice-cold buffer. Non-specific uptake was measured in parallel experiments with the control pSPORT vector-transfected CHO cells. Finally, the cells were solubilized by 0.1% v/v Triton X-100, and 0.6 ml was used for scintillation counting. From the remaining volume, 10 μl of solution was taken from each well and protein concentration was determined using the Bio-Rad reagent according to the Bradford technique [M. Bradford, A rapid and sensitive method of quantitation of microgram quantities of protein utilizing the principle of protein-dye binding, Anal. Biochem. 72 (1976) 248]. Bovine serum albumin was used as the standard.
Parallel uptake experiments were performed using CHO/pSPORT control cells.
as §1, with “hSMVT” for “hSMVT (CHO/hSMVT)”, “glucose.” for “glucose, approximately 48 hours post-transfection.”, “Washing” for “Uptake was stopped by washing”, “three times” for “thrice”, “buffer stopped drug uptake.” for “buffer.”, “manufacturer's instructions.” for “Bradford technique [M. Bradford, A rapid and sensitive method of quantitation of microgram quantities of protein utilizing the principle of protein-dye binding, Anal. Biochem. 72 (1976) 248].”
as §1, with “Studies.” for “Studies”, “glucose.” for “glucose, approximately 48 hours post-transfection.”, “manufacturer's instructions.” for “Bradford technique [M. Bradford, A rapid and sensitive method of quantitation of microgram quantities of protein utilizing the principle of protein-dye binding, Anal. Biochem. 72 (1976) 248].”

Data set [2] concerns colonic epithelial NCM460 cells. The conditions noted are these: read-out: Km of biotin transport; literature; cited from earlier work.
For a further data set, the system named is CHO/pSPORT cells. Briefly: Non-specific uptake in vector-transfected control CHO/pSPORT cells. The protocol:
as §1, with “From the remaining volume, 10 μl of solution was taken from each well and protein concentration was determined using the Bio-Rad reagent according to the Bradford technique [M. Bradford, A rapid and sensitive method of quantitation of microgram quantities of protein utilizing the principle of protein-dye binding, Anal. Biochem. 72 (1976) 248].” left out
CHO Cell Uptake Studies CHO cells transiently transfected with hSMVT were washed twice with 25 mM uptake buffer, containing 25 mM Hepes/Tris pH 7.5, 140 mM NaCl, 5.4 mM KCl, 1.8 CaCl2, 0.8 mM MgSO4 and 5 mM glucose. […] Non-specific uptake was measured in parallel experiments with the control pSPORT vector-transfected CHO cells. […] From the remaining volume, 10 μl of solution was taken from each well and protein concentration was determined using the Bio-Rad reagent according to the manufacturer's instructions. […]
CHO Cell Uptake Studies. […] Non-specific uptake was measured in parallel experiments with the control pSPORT vector-transfected CHO cells. […]

Data set [3] has as its system human intestinal brush-border membrane vesicles. The conditions noted are these: read-out: Km of biotin transport; literature; cited from earlier work.
A further data set deals with TAR RNA. The conditions noted are these: unpublished results of the inventors.
Data set [4] concerns bovine brain microvessel endothelial cells (BBMECs). Briefly: Transport (permeability) across BBMEC monolayers, in vitro BBB model. The conditions noted are these: read-out: Km of transport and uptake; BBMECs. The protocol: Non-biotinylated PEGs were used in the control studies.
Isolation and culture of BBMECs. Bovine Brain Microvessel Endothelial Cells (BBMECs) were used as an in vitro model of BBB. BBMECs were isolated from bovine brain by a two-step enzymatic method and the cells were cultured on collagen coated Transwell™ plates or polystyrene plates in an atmosphere of 95% air and 5% CO2 at 37° C. Transendothelial electrical resistance (TEER) and several molecular markers were used to validate the integrity of the cell culture system.
The cells were cultured on 12-well Transwell™ filters for 7-8 days and transport was evaluated. […] All studies were performed at 37° C.

Method for Caco-2 cell monolayers: Caco-2 Cell Transport Studies An Ussing-type diffusion chamber system (Harvard Apparatus, Natick, Mass.) was used to perform transport studies. The apical solution was a MES Ringer's buffer (pH 6.5) consisting of 114.0 mM NaCl, 5.0 mM KCl, 1.1 mM MgSO4, 1.25 mM CaSO4, and 15 mM 2-(N-morpholino)ethanesulfonic acid (MES). The basolateral solution was a Ringer's buffer (pH 7.4) consisting of 114.0 mM NaCl, 5.0 mM KCl, 1.65 mM Na2HPO4, 0.3 mM NaH2PO4, 25 mM NaHCO3, 1.1 mM MgSO4, and 1.25 mM CaSO4. Both buffers contained 25 mM glucose and were adjusted to 290 mOsm/kg using a vapor pressure osmometer (Wescor Inc, Logan, Utah). For transport experiments using filters with cell monolayers, the inserts were rinsed with Ringer's buffet containing 25 mM glucose three times over a 20 min period at room temperature. The TEER was measured for each monolayer before it was mounted onto the diffusion chamber, which was pre-warmed to 37° C. by placement on the heating blocks. The volume of each half-chamber was 5 ml and the surface area of the Snapwell™ filters available for drug transport was 1 cm^2. […] The donor solution consisted of radiolabeled permeant in the apical buffer [apical (AP) to basolateral (BL) study]. Starting at 30 min, samples were taken from the receptor chamber every 15 min until the end of the experiment (105 min). A minimum of three monolayers was used to determine the permeability of test compound in each study and sample analysis was performed using scintillation counting (Perkin Elmer, Gaithersburg, Md.).
The Michaelis-Menten kinetic parameters of Caco-2 and CHO cell transport were then estimated using non-linear regression.
Prior to experimentation, diffusion chambers mounted with the Snapwells™ containing Caco-2 cells were equilibrated at 5° C., 10° C., 15° C., 25° C. and 37° C.
[formula] where Pe is the effective permeability of the substrate transported, Cs is the substrate concentration and Pm and Pc represent the passive and carrier-mediated component of the permeability. All data were initially fitted to a 3-parameter model (Pc, Pm, Km for Caco-2 studies, Jmax, Pm, Km for CHO studies).
Caco-2 Cell Transport Studies An Ussing-type diffusion chamber system (Harvard Apparatus, Natick, Mass.) was used to perform transport studies. The apical solution was a MES Ringer's buffer (pH 6.5) consisting of 114.0 mM NaCl, 5.0 mM KCl, 1.1 mM MgSO4, 1.25 mM CaSO4, and 15 mM 2-(N-morpholino)ethanesulfonic acid (MES). The basolateral solution was a Ringer's buffer (pH 7.4) consisting of 114.0 mM NaCl, 5.0 mM KCl, 1.65 mM Na2HPO4, 0.3 mM NaH2PO4, 25 mM NaHCO3, 1.1 mM MgSO4, and 1.25 mM CaSO4. Both buffers contained 25 mM glucose and were adjusted to 290 mOsm/kg using a vapor pressure osmometer (Wescor Inc, Logan, Utah). For transport experiments using filters with cell monolayers, the inserts were rinsed with Ringer's buffer containing 25 mM glucose three times over a 20 min period at room temperature. The TEER was measured for each monolayer before it was mounted onto the diffusion chamber, which was pre-warned to 37° C. by placement on the heating blocks.

With `O=C(O)CCCC[C@@H]1SC[C@@H]2NC(=O)N[C@@H]21` [Biotin, biotin], the “inhibition of RI-K(biotin)-Tat9 uptake” value against SMVT (0.1 μM RI-K(biotin)-Tat9, inhibitor 50 μM) is recorded as “significantly inhibited; also recorded: significantly lowered (p<0.001)”. In addition, the “inhibition of biotin-PEG-3400 uptake” value against SMVT (0.1 μM biotin-PEG-3400, inhibitor 50 μM) is listed as “significantly (p<0.01) inhibited”. For the same compound, at SMVT (0.1 μM conjugate, inhibitor 50 μM), the “inhibition of PEG:(RI-K(biotin)-Tat9)8 uptake” value is reported as “significantly lower (p<0.05)”. Further, the Km (usually the concentration of substrate that gives half-maximal velocity) was 11.3 µM with Caco-2 cell monolayers, 8.77 µM with rat small intestine, 19.7 µM in [2] and 5.26 µM in data set [3]. For the same compound, in the data set “in vitro”, the apparent permeability coefficient (Papp) (as a rule, a coefficient for how fast a substance crosses the barrier) at 105 min is 3.35 ×10⁻⁶ cm/s. Besides, the “Pm, passive uptake component” value in [1] was 3.50 (3.0) pmol/mg protein/10 min. Moreover, the Jmax in [1] (uptake in CHO/hSMVT cells) was 174.61±47.53 pmol/mg protein/10 min and 174.61 (47.53) pmol/mg protein/10 min. In the data set on CHO/pSPORT cells, the “uptake in CHO/pSPORT cells” value was determined as 23.73 pmol/mg protein/10 min.

On to “N-acetyl-D-Lys:(ε-biotin)-D-Arg-D-Arg-D-Arg-D-Gln-D-Arg-D-Arg-D-Lys-D-Lys-D-Arg-NH2 [RI-K(biotin)-Tat9]”, for which the Km in the data set with Caco-2 cell monolayers is 3.27 µM; in [1] (uptake in CHO/hSMVT cells, 10 min, 37° C.), 1 ± 0.13 µM; in data set [4], ~40 µM. In addition, the “Jmax without Pm component in the regression model” value in [1] (CHO/hSMVT) is 675.95 pmol/mg protein/10 min. In data set [1], the “Pm, passive uptake component” value is on record as 32.90 (4.48) pmol/mg protein/10 min. In data set [1] (CHO/hSMVT, 0.1 μM, 10 min), the “uptake of substrate alone (control of inhibition study)” value was ~41.93 pmol/mg protein/10 min. Further, the “uptake, fold greater than RI-K-Tat9” value in [1] (CHO/hSMVT, at 10 μM) is recorded as ~500 fold. Moreover, the Jmax in data set [1] (uptake in CHO/hSMVT cells) was 227.26±29.33 pmol/mg protein/10 min and 227.26 pmol/mg protein/10 min and 227.26 (29.33) pmol/mg protein/10 min. In addition, the “TAR RNA binding activity” value with TAR RNA is recorded as “comparable TAR RNA binding activity to Tat9-K(biotin)”.
